Measured values reported in ChEMBL document CHEMBL5143734, “Seco-Lupane Triterpene Derivatives Induce Ferroptosis through GPX4/ACSL4 Axis and Target Cyclin D1 to Block the Cell Cycle” (J Med Chem, 2022).
Active and inactive are the calls of the source. The rule behind the calls is not given here.

What was measured:
HepG2 [1] = assay: Downregulation of Cyclin B1 mRNA expression in human HepG2 cells assessed as fragments per kilo base of exon per million mapped fragments by RT-qPCR analysis (reference value: 54.40 to 58.62); assay type: functional
HepG2 [2] = assay: Inhibition of Cyclin D1 in human HepG2 cells assessed as reduction in E2F expression by Western blot analysis; assay type: cell-based; settings: dose 0.5-2 µM, DDE = dose-dependent effect
[3] = target: G1/S-specific cyclin-D1 (Homo sapiens) (UniProt P24385); assay: Binding affinity to Cyclin D1 in human HepG2 cells by laser confocal microscopy; assay type: cell-based
G1/S-specific cyclin-D1 (Homo sapiens), sequence (P24385 whole entry): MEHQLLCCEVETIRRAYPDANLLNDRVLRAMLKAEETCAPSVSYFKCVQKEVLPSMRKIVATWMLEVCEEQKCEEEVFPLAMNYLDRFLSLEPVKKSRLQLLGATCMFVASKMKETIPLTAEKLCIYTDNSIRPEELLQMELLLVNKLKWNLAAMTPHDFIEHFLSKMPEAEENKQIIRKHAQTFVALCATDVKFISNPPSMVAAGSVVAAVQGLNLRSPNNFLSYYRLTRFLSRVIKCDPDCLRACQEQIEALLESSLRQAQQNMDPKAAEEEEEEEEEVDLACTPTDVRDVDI

HepG2 [4] = assay: Downregulation of Cyclin B1 mRNA expression in human HepG2 cells at 0.5 to 2.0 uM by RT-qPCR analysis; assay type: functional, cell-based; settings: dose 0.5-2 µM, time 6-36 hrs, TDE = time-dependent effect
HepG2 [5] = assay: Induction of ferroptosis in human HepG2 cells assessed as upregulation of ACSL4 mRNA expression at 0.25 to 1 uM by qRT-PCR analysis; assay type: functional, cell-based; settings: dose 0.25-1 µM, time 24-48 hrs, TDE = time-dependent effect
HepG2 [6] = assay: Cytotoxicity against human HepG2 cells assessed as reduction in cell viability at 50 uM incubated for 48 hrs by CCK-8 assay; assay type: functional, cell-based
HepG2 [7] = assay: Induction of ferroptosis in human HepG2 cells assessed as decreased in GSH level incubated for 36 hrs; assay type: functional, cell-based; settings: dose 0.5-2 µM, DDE = dose-dependent effect
PC-3M = assay: Cytotoxicity against human PC-3M cells assessed as reduction in cell viability by CCK-8 assay; assay type: functional, cell-based
HepG2 [8] = assay: Induction of ferroptosis in human HepG2 cells assessed as decrease in GPX4 protein expression at 2 uM by Western blot analysis; assay type: functional, cell-based; settings: time 6-36 hrs, TDE = time-dependent effect
HepG2 [9] = assay: Induction of cell cycle arrest in human HepG2 cells assessed as decrease in cells at G2 phase at 0.5 to 2 uM; assay type: functional, cell-based; settings: dose 0.5-2 µM
HepG2 [10] = assay: Induction of ferroptosis in human HepG2 cells assessed as increase in intracellular ROS level at 2 uM incubated for 48 hrs by DCFH-DA staining based flow cytometry analysis; assay type: functional

**Q.** Which Activity (HepG2 [1]) does the source give for `C=C(C)[C@@H]1CC[C@]2(C(=O)OCCCCCn3cc(CCN)c4ccccc43)CC[C@]3(C)[C@H](C[C@H]4OC(=O)C[C@@H](O)[C@]5(C)[C@@H]4[C@@]3(C)CC[C@H]5C(=C)C)[C@@H]12` here?
**A.** The Activity was 39.59.

**Q.** And the inhibition (HepG2 [2])?
**A.** Its inhibition is “Dde”.

**Q.** What about the Activity [3] of the same compound?
**A.** The Activity was “Active”.

**Q.** And the Activity (HepG2 [4])?
**A.** The Activity was “Tde”.

**Q.** And the Activity (HepG2 [5])?
**A.** Its Activity is “Tde”.

**Q.** What about the Activity (HepG2 [6]) of the same compound?
**A.** The Activity was “Active”.

**Q.** What about the Activity (HepG2 [7]) of the same compound?
**A.** The Activity was “Dde”.

**Q.** What about the IC50 (PC-3M) of the same compound?
**A.** Its IC50 is 3.93 µM.

**Q.** What about the Activity (HepG2 [8]) of the same compound?
**A.** Its Activity is “Tde”.

**Q.** What about the Activity (HepG2 [9]) of the same compound?
**A.** Its Activity is “Active”.

**Q.** And the Activity (HepG2 [10])?
**A.** The Activity was 96.39%.
